# How the values were obtained:
# Barnyardgrass [1] = experiment: Example 17 selective herbicidal activity in corn crop, weed kill; type: in vivo, Echinochloa crusgalli; conditions: Echinochloa crus-galli, 3-4 weeks after planting
# Text: (§1) This example illustrates the selective herbicidal activity of two of the presently preferred compounds of this invention against various weed species in a corn crop.
# (§2) Plots of light sandy soil, cleared of all weeds, are uniformly treated with aqueous dispersions prepared from an emulsifiable concentrate containing 2- 4 pounds of active ingredient per gallon. Diluted aqueous dispersions are applied as surface treatments at 2.0, 1.0, 0.5, and 0.25 pound of active ingredient per acre (lb/A).
# (§3) The treated test plots are sown to corn and with seeds of the following weed species:
# (§4) Three to four weeks after planting, the degree of damage to both the corn stands and the weed plants is assessed from a rating of 0% (no injury) to 100% (complete destruction).
# Sorghum = experiment: Example 18 phytotoxic effects on crop stands in different soils; type: in vivo, grain sorghum
# Description: (§5) To further illustrate the herbicidal activity of compounds of this invention in different types of soil as would be encountered in different crop growing localities, a preemergence herbicide test is conducted generally as outlined previously herein. Two light sandy soils are employed containing 0.7% and 1.8% organic matter (O.M.), respectively, along with two loam-type, heavier soils containing either 2.0% or 5-5.5% organic matter (O.M.).
# (§6) The test plots are all sprayed uniformly with formulations of the test compounds providing 2.0, 1.0, 0.5, and 0.25 pound of active chemical per acre (lb/A).
# (§7) Prior to treatment, the soil plots are sown to field corn, soybean, and grain sorghum crops and seeds of barnyard-grass and yellow foxtail.
# Three weeks after planting, the percent control of plant growth is rated from 0% (no injury) to 100% (total destruction). The results obtained are as follows:
# Phytotoxic effects on the crop stands are similarly rated with the following results: […]
# Barnyardgrass [2] = experiment: Example 18 preemergence herbicide test in different soils, % control; type: in vivo, barnyard-grass; conditions: three weeks
# Description: as §5, §6, §7
# Three weeks after planting, the percent control of plant growth is rated from 0% (no injury) to 100% (total destruction).
# Morningglory = experiment: Example 17 selective herbicidal activity in corn crop, weed kill; type: in vivo, Ipomoea sp.; conditions: Ipomoea, 3-4 weeks after planting
# Text: as §1, §2, §3, §4
# Goosegrass [3] = experiment: as above; type: in vivo, Eleusine indica; conditions: 3-4 weeks after planting
# Text: as §1, §2, §3, §4
# corn [4] = experiment: Example 17 damage to corn crop; type: in vivo; conditions: 1 lb/A
# Text: as §1, §2, §3, §4
# [5] = tested on: broadleaf species: pigweed, velvetleaf, morningglory; experiment: Greenhouse preemergence herbicide test, broadleaves; type: in vivo; conditions: two weeks after treatment, 20160 min
# Description: (§8) To illustrate the preemergence herbicidal efficiency of the alkyl-substituted 2-chloro-N-propargylacetanilides of this invention, test formulations are prepared of each compound by mixing 20 ml of an acetone solution containing 0.125 g of chemical with 20 ml of water containing 0.01 g of Triton X-155 surfactant. The resultant formulations contain 3125 ppm of test compound, 50% by volume of acetone and 0.025% by weight of surfactant. Appropriate lower concentrations are obtained by diluting this formulation with surfactant-acetone solution so that the concentration of adjuvants is maintained at the original levels.
# (§9) Seeds of three broadleaf and three grass species are planted in soil contained in 10 inch × 8 inch × 3 inch aluminum pans filled with 1.5 inches of composted soil. The broadleaf species are pigweed (Amaranthus retroflexus), velvetleaf (Abutilon theophrasti), and morningglory (Ipomea coccinea); the grasses are red millet (Panicum milliacem), green foxtail (Setaria viridis) and Japanese millet (Echinochloa frumentacea).
# (§10) The seeded pans are sprayed so that the soil surface is uniformly covered with dilutions of the stock formulation providing dosage rates of the test compounds as shown in the following table.
# (§11) Two weeks after treatment, percent control (plant kill) at each dosage rate is estimated with results as follows: […]
# [6] = tested on: grass species: red millet, green foxtail, Japanese millet; experiment: Greenhouse preemergence herbicide test, grasses; type: in vivo, Panicum milliacem, Setaria viridis, Echinochloa frumentacea; conditions: pre-emergence, 336 h, two weeks after treatment
# Description: as §8, §9, §10, §11
# Prickly Sida = experiment: Field preemergence test, weed control; type: in vivo; conditions: 3-4 weeks after planting
# Text: (§12) Test plots of fertilized, light sandy soil containing 0.7% organic matter are sprayed uniformly with aqueous suspensions prepared from emulsifiable concentrates containing 12%, by weight, of the test chemicals diluted to provide dosage rates of the test compounds corresponding to 2.0, 1.0, 0.5, and 0.25 pound per acre (lb/A). The plots are then sown with seeds of the following crop plants: sweet corn, cotton (Coker 413) and soybeans, var. Davis. Seeds of the following weed plants are planted: redroot pigweed, prickly sida, common lambsquarter, goosegrass and giant foxtail.
# (§13) Three to four weeks after planting, percent control (plant kill) of the test plants is estimated, from a rating of 0 which denotes no injury to the plant up to 100 which denotes complete destruction. The herbicidal action of the test compounds obtained on the weed species is as follows: […]
# Goosegrass [7] = experiment: Field preemergence test, weed control; type: in vivo; conditions: 3-4 weeks after planting
# Text: as §12, §13
# Corn [8] = experiment: Field preemergence test, phytotoxic effects on crop; type: in vivo, sweet corn
# Text: as §12
# Three to four weeks after planting, percent control (plant kill) of the test plants is estimated, from a rating of 0 which denotes no injury to the plant up to 100 which denotes complete destruction. The herbicidal action of the test compounds obtained on the weed species is as follows:
# Phytotoxic effects observed on the crop species is estimated with results as follows: […]
# [9] = 0.5 lb/A, Heavy Soil 5-5.5% O.M.
# [10] = 0.5 lb/A, Medium Soil 2.0% O.M.
# [11] = 1.0 lb/A, Heavy Soil 5-5.5% O.M.
# [12] = 1.0 lb/A, Medium Soil 2.0% O.M.
# [13] = 2.0 lb/A, Heavy Soil 5-5.5% O.M.
# [14] = 2.0 lb/A, Medium Soil 2.0% O.M.
compound,measurement,setting,value
"C#CCN(C(=O)CCl)c1c(C)cccc1CC [Example 15, 2-Chloro-2'-methyl-6'-ethyl-N-propargylacetanilide]",mortality at 280.212 g/ha,Barnyardgrass [1]; 0.25 lb/A,88%
same,mortality at 560.425 g/ha,Barnyardgrass [1]; 0.5 lb/A,100%
same,mortality at 1120.85 g/ha,Barnyardgrass [1]; 1.0 lb/A,100%
same,mortality at 2241.7 g/ha,Barnyardgrass [1]; 2.0 lb/A,100%
same,"% Phytotoxicity, Sorghum",Sorghum; [9],45%
same,"% Phytotoxicity, Sorghum",Sorghum; [10],60%
same,"% Phytotoxicity, Sorghum","Sorghum; 0.5 lb/A, Sand 0.7% O.M.",0%
same,"% Phytotoxicity, Sorghum","Sorghum; 0.5 lb/A, Sand 1.8% O.M.",20%
same,"% Phytotoxicity, Sorghum",Sorghum; [11],90%
same,"% Phytotoxicity, Sorghum",Sorghum; [12],100%
same,"% Phytotoxicity, Sorghum","Sorghum; 1.0 lb/A, Sand 0.7% O.M.",15%
same,"% Phytotoxicity, Sorghum","Sorghum; 1.0 lb/A, Sand 1.8% O.M.",65%
same,"% Phytotoxicity, Sorghum",Sorghum; [13],99%
same,"% Phytotoxicity, Sorghum",Sorghum; [14],100%
same,"% Phytotoxicity, Sorghum","Sorghum; 2.0 lb/A, Sand 0.7% O.M.",50%
same,"% Phytotoxicity, Sorghum","Sorghum; 2.0 lb/A, Sand 1.8% O.M.",90%
same,"% Control, Barnyardgrass",Barnyardgrass [2]; [9],98%
same,"% Control, Barnyardgrass",Barnyardgrass [2]; [10],100%
same,"% Control, Barnyardgrass","Barnyardgrass [2]; 0.5 lb/A, Sand 0.7% O.M.",75%
same,"% Control, Barnyardgrass","Barnyardgrass [2]; 0.5 lb/A, Sand 1.8% O.M.",50%
same,"% Control, Barnyardgrass",Barnyardgrass [2]; [11],100%
same,"% Control, Barnyardgrass",Barnyardgrass [2]; [12],100%
same,"% Control, Barnyardgrass","Barnyardgrass [2]; 1.0 lb/A, Sand 0.7% O.M.",99%
same,"% Control, Barnyardgrass","Barnyardgrass [2]; 1.0 lb/A, Sand 1.8% O.M.",90%
same,"% Control, Barnyardgrass",Barnyardgrass [2]; [13],100%
same,"% Control, Barnyardgrass",Barnyardgrass [2]; [14],100%
same,"% Control, Barnyardgrass","Barnyardgrass [2]; 2.0 lb/A, Sand 0.7% O.M.",99%
same,"% Control, Barnyardgrass","Barnyardgrass [2]; 2.0 lb/A, Sand 1.8% O.M.",99%
same,mortality at 280.212 g/ha,Morningglory; 0.25 lb/A,0%
same,mortality at 560.425 g/ha,Morningglory; 0.5 lb/A,0%
same,mortality at 1120.85 g/ha,Morningglory; 1.0 lb/A,0%
same,mortality at 2241.7 g/ha,Morningglory; 2.0 lb/A,6%
same,"% Weed Kill, Goosegrass",Goosegrass [3]; 0.25 lb/A,82%
same,"% Weed Kill, Goosegrass",Goosegrass [3]; 0.5 lb/A,100%
same,"% Weed Kill, Goosegrass",Goosegrass [3]; 1.0 lb/A,100%
same,"% Weed Kill, Goosegrass",Goosegrass [3]; 2.0 lb/A,100%
same,injury to the corn,corn [4],no injury
same,"% Control, Broadleaves",[5]; 0.5 lb/A,0%
same,"% Control, Broadleaves",[5]; 1.0 lb/A,35%
same,pest or weed control at 69.4927 g/ha,[6]; 0.062 lb/A,0%
same,pest or weed control at 140.106 g/ha,[6]; 0.125 lb/A,70%
same,pest or weed control at 280.212 g/ha,[6]; 0.25 lb/A,85%
same,pest or weed control at 560.425 g/ha,[6]; 0.5 lb/A,98%
same,pest or weed control at 1120.85 g/ha,[6]; 1.0 lb/A,99%
same,"% Weed Control, Prickly Sida",Prickly Sida; 0.25 lb/A,0%
same,"% Weed Control, Prickly Sida",Prickly Sida; 0.5 lb/A,55%
same,"% Weed Control, Prickly Sida",Prickly Sida; 1.0 lb/A,93%
same,"% Weed Control, Prickly Sida",Prickly Sida; 2.0 lb/A,97%
same,"% Weed Control, Goosegrass",Goosegrass [7]; 0.25 lb/A,87%
same,"% Weed Control, Goosegrass",Goosegrass [7]; 0.5 lb/A,97%
same,"% Weed Control, Goosegrass",Goosegrass [7]; 1.0 lb/A,100%
same,"% Weed Control, Goosegrass",Goosegrass [7]; 2.0 lb/A,100%
same,"% Crop Kill, Corn",Corn [8]; 0.5 lb/A,0%
same,"% Crop Kill, Corn",Corn [8]; 1.0 lb/A,3%
same,"% Crop Kill, Corn",Corn [8]; 2.0 lb/A,12%
